From ChEMBL document CHEMBL4325929, “Discovery of Tetrahydropyridopyrimidines as Irreversible Covalent Inhibitors of KRAS-G12C with In Vivo Activity” (ACS Med Chem Lett, 2018)
Active and inactive are the calls of the source. The rule behind the calls is not given here.

Tests used:
GTPase KRas = GTPase KRas (Homo sapiens, UniProt P01116, G12C); assay: Inhibition of KRAS G12C mutant in human NCI-H358 cells assessed as reduction in ERK phosphorylation measured after 3 hrs by Western blot analysis; format: cell-based
Sequence of GTPase KRas (P01116 whole entry G12C): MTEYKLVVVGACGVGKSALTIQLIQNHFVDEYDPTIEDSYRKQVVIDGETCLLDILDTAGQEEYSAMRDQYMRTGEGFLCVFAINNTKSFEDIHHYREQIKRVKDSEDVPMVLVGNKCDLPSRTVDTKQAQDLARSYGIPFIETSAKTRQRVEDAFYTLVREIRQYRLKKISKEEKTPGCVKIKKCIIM

[1] = tested on: GTPase KRas (Homo sapiens), P01116 [G12C]; assay: Binding affinity to KRAS G12C mutant (unknown origin) assessed as covalent modification at 3 uM after 15 mins by LC-MS analysis relative to control
Sequence of GTPase KRas (Homo sapiens), P01116 [G12C] (P01116 whole entry G12C): as above

[2] = tested on: GTPase KRas (Homo sapiens), P01116 [G12C]; assay: Binding affinity to KRAS G12C mutant (unknown origin) assessed as covalent modification at 5 uM after 3 hrs by LC-MS analysis relative to control
Mus musculus [3] = assay: Ex vivo inhibition of KRAS G12C mutant in human MIAPaCa2 cells xenografted in nude-Fox1nu mouse assessed as target engagement in tumor at 30 to 100 mg/kg, ip administered once daily for 5 days measured 3 to 24 hrs post dose relative to control; format: functional; design: scale not given: the % may be the effect or the level left
[4] = Plasma concentration in CD-1 mouse at 100 mg/kg, ip measured after 0.5 hrs; format: ADME, organism-based
[5] = Plasma concentration in CD-1 mouse at 50 mg/kg, ip measured after 3 hrs; format: ADME, organism-based
[6] = Plasma concentration in CD-1 mouse at 100 mg/kg, ip measured after 1 hr; format: ADME, organism-based
[7] = Volume of distribution at steady state in CD-1 mouse at 3 mg/kg, iv; format: ADME, organism-based; conditions: in vivo, read-out: Vdss
MIA PaCa-2 [8] = assay: Antitumor activity against human MIAPaCa2 cells xenografted in nude-Fox1nu mouse assessed as reduction in tumor volume at 30 to 100 mg/kg, ip administered once daily for 17 days measured three times a week during compound dosing; format: functional, organism-based
[9] = Plasma concentration in CD-1 mouse at 50 mg/kg, ip measured after 0.5 hrs; format: ADME, organism-based
[10] = Tmax in CD-1 mouse at 100 mg/kg, po; format: ADME, organism-based; conditions: in vivo
[11] = AUC (infinity) in CD-1 mouse at 100 mg/kg, po; format: ADME, organism-based; design: dose 100 mg/kg, time infinity, route oral; conditions: in vivo
[12] = Half life in CD-1 mouse at 3 mg/kg, iv; format: ADME, organism-based; conditions: in vivo
[13] = Clearance in CD-1 mouse at 3 mg/kg, iv; format: ADME, organism-based; conditions: in vivo
[14] = Plasma concentration in CD-1 mouse at 15 mg/kg, ip measured after 1 hr; format: ADME, organism-based
MIA PaCa-2 [15] = assay: Antitumor activity against human MIAPaCa2 cells xenografted in nude-Fox1nu mouse assessed as tumor regression at 30 to 100 mg/kg, ip administered once daily for 5 days; format: functional, organism-based
[16] = Plasma concentration in CD-1 mouse at 100 mg/kg, ip measured after 6 hrs; format: ADME, organism-based
[17] = Cmax in CD-1 mouse at 100 mg/kg, po; format: ADME, organism-based; design: dose 100 mg/kg, route oral; conditions: in vivo
[18] = Oral bioavailability in CD-1 mouse at 100 mg/kg; format: ADME, organism-based; conditions: in vivo
[19] = Plasma concentration in CD-1 mouse at 50 mg/kg, ip measured after 1 hr; format: ADME, organism-based
[20] = Toxicity in nude-Fox1nu mouse xenografted with human MIAPaCa2 cells assessed as adverse effect at 30 to 100 mg/kg, ip administered once daily for 17 days measured during compound dosing; format: organism-based; conditions: in vivo, 408 h
[21] = Plasma concentration in CD-1 mouse at 15 mg/kg, ip measured after 3 hrs; format: ADME, organism-based; conditions: in vivo, BLD = below limit of detection
[22] = Plasma concentration in CD-1 mouse at 100 mg/kg, ip measured after 3 hrs; format: ADME, organism-based
[23] = Protein binding in CD-1 mouse plasma at 1 uM by equilibrium dialysis method; format: ADME, cell-free; conditions: read-out: PPB (converted)
[24] = Toxicity in nude-Fox1nu mouse xenografted with human MIAPaCa2 cells assessed as body weight loss at 30 to 100 mg/kg, ip administered once daily for 17 days measured 2 times a week during compound dosing; format: organism-based; conditions: in vivo, 408 h
MDR1 [25] = assay: Apparent permeability across apical to basolateral side in pig LLC-PK1 cells expressing MDR1 at 1 uM; format: ADME, cell-based, Sus scrofa
Mus musculus [26] = assay: Ex vivo inhibition of KRAS G12C mutant in human MIAPaCa2 cells xenografted in nude-Fox1nu mouse assessed as target engagement in tumor at 30 to 100 mg/kg, ip administered once daily for 1 day measured 3 to 24 hrs post dose relative to control; format: functional; design: scale not given: the % may be the effect or the level left
[27] = Plasma concentration in CD-1 mouse at 15 mg/kg, ip measured after 0.5 hrs; format: ADME, organism-based
MDR1 [28] = assay: Apparent permeability across basolateral to apical side in pig LLC-PK1 cells expressing MDR1 at 1 uM; format: ADME, cell-based, Sus scrofa

Work on C=CC(=O)N1CCN(c2nc(OCCCN(C)C)nc3c2CCN(c2cc(O)cc4ccccc24)C3)CC1 yielded an IC50 (GTPase KRas) of 1.5 µM and an Activity [1] of 22%.
In the case of C=CC(=O)N1CCN(c2ncnc3c2CCN(c2cc(O)cc4ccccc24)C3)CC1, the IC50 (GTPase KRas) is reported as 7.6 µM, the Activity [2] is reported as 99% and the Activity [1] is reported as 8%.
C=CC(=O)N1CCN(c2ncnc3c2CCN(c2c(O)cccc2F)C3)CC1 gave an IC50 (GTPase KRas) greater than 16 µM and an Activity [2] of 2%.
C=CC(=O)N1CCN(c2ncnc3c2CCN(c2cccc4ccccc24)C3)CC1 gave an IC50 (GTPase KRas) greater than 16 µM and an Activity [2] of 13%.
Molecule C=CC(=O)N1CCN(c2nc(OC[C@@H]3CCCN3C)nc3c2CCN(c2cc(O)cc4ccccc24)C3)CC1 has an Activity (Mus musculus [3]) greater than 65%, a concentration at 0.5 h [4] of 26000 ng/mL and a concentration at 3 h [5] of 250 ng/mL. The concentration at 1 h [6] was 17000 ng/mL, the Vd [7] was 0.53 L/kg and the Activity (MIA PaCa-2 [8]) was “Active”. The concentration at 0.5 h [9] was 8300 ng/mL, the Tmax [10] was 60 min and the AUC(0-inf) [11] was 880 ng·h/mL. For the same molecule, the half-life [12] was 57.6 min, the clearance [13] was 46 mL/min/kg and the concentration at 1 h [14] was 970 ng/mL. The Activity (MIA PaCa-2 [15]) was “Active”, the concentration at 6 h [16] was 1300 ng/mL and the Cmax [17] was 590 ng/mL. For the same molecule, the bioavailability [18] was 2.4%, the concentration at 1 h [19] was 2600 ng/mL and the Activity [20] was “Non-Toxic”. For the same molecule, the Cp [21] was “Bld”, the Activity [1] was 84% and the concentration at 3 h [22] was 1400 ng/mL. For the same molecule, the fraction unbound at 1 µM [23] was 0.05, the Activity [24] was “Non-Toxic” and the Papp A→B at 1 µM (MDR1 [25]) was 1.4 ×10⁻⁶ cm/s. The Activity (Mus musculus [26]) was greater than 65%, the concentration at 0.5 h [27] was 1500 ng/mL and the Papp B→A at 1 µM (MDR1 [28]) was 37 ×10⁻⁶ cm/s.
In the case of C=CC(=O)N1CCN(c2ncnc3c2CCN(c2c(C)ccc4[nH]ncc24)C3)CC1, the IC50 (GTPase KRas) is reported as greater than 16 µM and the Activity [2] is reported as 22%.
In the case of C=CC(=O)N1CCN(c2nc(OCCN(C)C)nc3c2CCN(c2cc(O)cc4ccccc24)C3)CC1, the IC50 (GTPase KRas) is reported as 1.9 µM and the Activity [1] is reported as 52%.
Molecule C=CC(=O)N1CCN(c2ncnc3c2CCN(c2cc(O)ccc2F)C3)CC1 has an IC50 (GTPase KRas) greater than 16 µM and an Activity [2] of 2%.
Work on C=CC(=O)N1CCN(c2nc(O[C@@H](C)CN(C)C)nc3c2CCN(c2cc(O)cc4ccccc24)C3)CC1 yielded an IC50 (GTPase KRas) of 0.54 µM and an Activity [1] of 21%.
Work on C=CC(=O)N1CCN(c2ncnc3c2CCN(c2cccc4ccc(O)cc24)C3)CC1 yielded an IC50 (GTPase KRas) greater than 16 µM and an Activity [2] of 0%.
